From US8633315B2, “Substituted hydroxyethyl amine compounds as beta-secretase modulators and methods of use” (Amgen Inc., priority 2007, dated 2014)

Experiments:
[1] = system: Cells stably expressing Amyloid Precursor Protein (APP); assay: In vitro BACE cell-based assay (HEK cell assay): Aβ40 in conditioned medium by sandwich ELISA; conditions: Aβ40 in conditioned medium after 24 h incubation
Experimental: In Vitro BACE Cell-Based Assay:
The cell-based assay measures inhibition or reduction of Aβ40 in conditioned medium of test compound treated cells expressing amyloid precursor protein.
Cells stably expressing Amyloid Precursor Protein (APP) were plated at a density of 40K cells/well in 96 well plates (Costar). The cells were cultivated for 24 hours at 37° C. and 5% CO2 in DMEM supplemented with 10% FBS. The test compounds were then added to cells in 10-point dose response concentrations with the starting concentration being either 100 μM or 10 μM. The compounds were diluted from stock solutions in DMSO and the final DMSO concentration of the test compounds on cells was 0.1%. After 24 h of incubation with the test compounds the supernatant conditioned media was collected and the Aβ 40 levels were determined using a sandwich ELISA. The IC50 of the compound was calculated from the percent of control or percent inhibition of Aβ 40 as a function of the concentration of the test compound.
The sandwich ELISA to detect Aβ 40 was performed in 96 well microtiter plates, which were pre-treated with goat anti-rabbit IgG (Pierce). The capture and detecting antibody pair that were used to detect Aβ 40 from cell supernatants were affinity purified pAb40 (Biosource) and biotinylated 6E10 (Signet Labs Inc.), respectively. The optimal concentration for the pAb40 antibody was 3 μg/ml in Superblock/TBS (Pierce) that was supplemented with 0.05% Tween 20 (Sigma). Optimal concentration for the detection antibody 6E10-biotinylated was 0.5 μg/ml in Superblock/TBS (Pierce) that had been supplemented with 2% normal goat serum and 2% normal mouse serum.
Cellular supernatants were incubated with the capture antibody for 3 h at 4° C., followed by 3 wash steps in TBS-tween (0.05%). The detecting antibody incubation was for 2 h at 4° C., again followed by the wash steps as described previously. The final readout of the ELISA is Time-Resolved Fluorescence (counts per minute) using Delfia reagents Streptavidin-Europium and Enhancement solutions (Perkin Elmer) and the Victor 2 multilabel counter (Perkin Elmer).
Of the compounds tested, in-the cell-based assay, data for each of Examples 33-156 is provided in Table 1 and Examples 208-246 are provided in Table 4.

BACE1 = BACE1 (Homo sapiens, UniProt P56817); assay: In vitro enzymatic BACE FRET (fluorescence resonance energy transfer) assay; format: biochemical
Experimental: In Vitro Enzymatic BACE FRET (Fluorescence Resonance Energy Transfer) Assay (Enzyme Assay Data in Table 1)
The assay buffer used in this screen is 0.05 M acetate, pH 4.2, 10% DMSO final, 100 uM genapol (which is a nonionic detergent, below its Critical Micelle Concentration). […] The assay is effectively started by the addition of FRET substrate (50 nM) and the combination is incubated for one hour. The FRET assay is terminated with by addition of Tris buffer, which raises the pH to neutrality, and the fluorescence is determined. The FRET substrate is a peptide with commercially available fluorophore and quencher, on opposite sides of the BACE cleavage site. Proteolytic cleavage of the FRET substrate releases quenching of fluorescence (excitation […] and emission […]).

BACE1, sequence (P56817 46-501, species assumed): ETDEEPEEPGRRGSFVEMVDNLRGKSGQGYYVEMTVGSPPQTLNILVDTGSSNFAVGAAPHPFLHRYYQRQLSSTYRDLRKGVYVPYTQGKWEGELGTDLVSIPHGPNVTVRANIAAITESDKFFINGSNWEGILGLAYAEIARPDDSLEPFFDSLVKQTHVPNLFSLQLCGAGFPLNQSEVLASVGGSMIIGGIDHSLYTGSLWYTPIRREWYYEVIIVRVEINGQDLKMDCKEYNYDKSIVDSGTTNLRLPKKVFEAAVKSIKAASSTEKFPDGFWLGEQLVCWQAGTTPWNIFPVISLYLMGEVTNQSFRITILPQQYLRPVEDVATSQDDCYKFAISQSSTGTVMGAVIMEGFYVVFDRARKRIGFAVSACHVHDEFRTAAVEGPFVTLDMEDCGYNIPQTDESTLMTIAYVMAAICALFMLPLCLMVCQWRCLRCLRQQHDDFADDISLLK

Compound `C=CC[C@H](NC(=O)C1CC(=O)N(C2CCC2)C1)[C@H](O)CN[C@H]1CC2(CCC2)Oc2ncc(CC(C)C)cc21` (stereo partly drawn) [Example 40, 1-cyclobutyl-N-((1S)-1-((1R)-1-hydroxy-2-(((4′S)-6′-(2-methylpropyl)-3′,4′-dihydrospiro[cyclobutane-1,2′-pyrano[2,3-b]pyridin]-4′-yl)amino)ethyl)-3-buten-1-yl)-5-oxo-3-pyrrolidinecarboxamide] has an IC50 ([1]; Homo sapiens, HEK293, 24 h) of 0.006 µM and an IC50 (BACE1) of 0.006 µM.

For `C=CC[C@H](NC(=O)c1cccnn1)[C@H](O)CN[C@H]1CC2(CCC2)Oc2ncc(CC(C)(C)C)cc21` [Example 57, N-((1S)-1-((1R)-2-(((4′S)-6′-(2,2-dimethylpropyl)-3′,4′-dihydrospiro[cyclobutane-1,2′-pyrano[2,3-b]pyridin]-4′-yl)amino)-1-hydroxyethyl)-3-buten-1-yl)-3-pyridazinecarboxamide], the IC50 ([1]; Homo sapiens, HEK293, 24 h) was 0.228 µM and the IC50 (BACE1) was 0.131 µM.

`CC=CC[C@H](NC(C)=O)[C@H](O)CN[C@H]1CC2(CC(F)C2)Oc2ncc(CC(C)(C)C)cc21` (stereo partly drawn) [Example 109, N-((1S)-1-((1R)-2-(((1s,3S,4′S)-6′-(2,2-dimethylpropyl)-3-fluoro-3′,4′-dihydrospiro[cyclobutane-1,2′-pyrano[2,3-b]pyridin]-4′-yl)amino)-1-hydroxyethyl)-3-penten-1-yl)acetamide] showed an IC50 [1] of 0.062 µM and an IC50 (BACE1) of 0.037 µM.

Work on `C=CC[C@H](NC(=O)C(F)(F)F)[C@H](O)CN[C@H]1CC2(CCC2)Oc2ncc(CC(C)(C)C)cc21` [Example 94, N-((1S)-1-((1R)-2-(((4′S)-6′-(2,2-dimethylpropyl)-3′,4′-dihydrospiro[cyclobutane-1,2′-pyrano[2,3-b]pyridin]-4′-yl)amino)-1-hydroxyethyl)-3-buten-1-yl)-2,2,2-trifluoroacetamide] yielded an IC50 ([1]; Homo sapiens, HEK293, 24 h) of 0.154 µM and an IC50 (BACE1) of 0.073 µM.

Compound `C=CC[C@H](NC(=O)c1cocn1)[C@H](O)CN[C@H]1CC2(CCC2)Oc2ncc(CC(C)(C)C)cc21` [Example 129, N-((1S)-1-((1R)-2-(((4′S)-6′-(2,2-dimethylpropyl)-3′,4′-dihydrospiro[cyclobutane-1,2′-pyrano[2,3-b]pyridin]-4′-yl)amino)-1-hydroxyethyl)-3-buten-1-yl)-1,3-oxazole-4-carboxamide] has an IC50 ([1]; Homo sapiens, HEK293, 24 h) of 1.04 µM and an IC50 (BACE1) of 0.226 µM.

Work on `C=CC[C@H](NC(=O)c1ccns1)[C@H](O)CN[C@H]1CC2(CCC2)Oc2ncc(CC(C)(C)C)cc21` [Example 130, N-((1S)-1-((1R)-2-(((4′S)-6′-(2,2-dimethylpropyl)-3′,4′-dihydrospiro[cyclobutane-1,2′-pyrano[2,3-b]pyridin]-4′-yl)amino)-1-hydroxyethyl)-3-buten-1-yl)-5-isothiazolecarboxamide] yielded an IC50 ([1]; Homo sapiens, HEK293, 24 h) of 0.19 µM and an IC50 (BACE1) of 0.094 µM.

In the case of `C=CCC(NC(=O)CF)C(O)CNC1CC2(CC(O)C2)Oc2ncc(CC(C)(C)C)cc21` [Example 111, N-((1S)-1-((1R)-2-(((1s,3S,4′S)-6′-(2,2-dimethylpropyl)-3-hydroxy-3′,4′-dihydrospiro[cyclobutane-1,2′-pyrano[2,3-b]pyridin]-4′-yl)amino)-1-hydroxyethyl)-3-buten-1-yl)-2-fluoroacetamide], the IC50 ([1]; Homo sapiens, HEK293) is reported as 0.065 µM and the IC50 (BACE1) is reported as 0.02 µM.

Work on `C=CC[C@H](NC(C)=O)[C@H](O)CN[C@H]1CC2(CCC2)Oc2ncc(CC(C)(F)F)cc21` [Example 120, N-((1S)-1-((1R)-2-(((4′S)-6′-(2,2-difluoropropyl)-3′,4′-dihydrospiro[cyclobutane-1,2′-pyrano[2,3-b]pyridin]-4′-yl)amino)-1-hydroxyethyl)-3-buten-1-yl)acetamide] yielded an IC50 ([1]; Homo sapiens, HEK293, 24 h) of 0.064 µM and an IC50 (BACE1) of 0.194 µM.

Work on `C=CC[C@H](NC(=O)c1cncc(F)c1)[C@H](O)CN[C@H]1CC2(CCC2)Oc2ncc(CC(C)(C)C)cc21` [Example 56, N-((1S)-1-((1R)-2-(((4′S)-6′-(2,2-dimethylpropyl)-3′,4′-dihydrospiro[cyclobutane-1,2′-pyrano[2,3-b]pyridin]-4′-yl)amino)-1-hydroxyethyl)-3-buten-1-yl)-5-fluoro-3-pyridinecarboxamide] yielded an IC50 ([1]; Homo sapiens, HEK293, 24 h) of 0.392 µM and an IC50 (BACE1) of 0.125 µM.

`C=CC[C@H](NC(=O)c1cccs1)[C@H](O)CN[C@H]1CC2(CCC2)Oc2ncc(CC(C)(C)C)cc21` [Example 128, N-((1S)-1-((1R)-2-(((4′S)-6′-(2,2-dimethylpropyl)-3′,4′-dihydrospiro[cyclobutane-1,2′-pyrano[2,3-b]pyridin]-4′-yl)amino)-1-hydroxyethyl)-3-buten-1-yl)-2-thiophenecarboxamide] was tested, and the IC50 ([1]; Homo sapiens, HEK293, 24 h) was 1.32 µM and the IC50 (BACE1) was 0.169 µM.

In the case of `C=C(C)C[C@H](NC(=O)CF)[C@H](O)CN[C@H]1CC2(CCC2)Oc2ncc(CC(C)(C)C)cc21` [Example 100, N-((1S)-1-((1R)-2-(((4′S)-6′-(2,2-dimethylpropyl)-3′,4′-dihydrospiro[cyclobutane-1,2′-pyrano[2,3-b]pyridin]-4′-yl)amino)-1-hydroxyethyl)-3-methyl-3-buten-1-yl)-2-fluoroacetamide], the IC50 ([1]; Homo sapiens, HEK293) is reported as 3.33 µM and the IC50 (BACE1) is reported as 3.65 µM.

Compound `C=CC[C@H](NC(=O)c1ccc(OC)nc1)[C@H](O)CN[C@H]1CC2(CCC2)Oc2ncc(CC(C)(C)C)cc21` [Example 63, N-((1S)-1-((1R)-2-(((4′S)-6′-(2,2-dimethylpropyl)-3′,4′-dihydrospiro[cyclobutane-1,2′-pyrano[2,3-b]pyridin]-4′-yl)amino)-1-hydroxyethyl)-3-buten-1-yl)-6-(methyloxy)-3-pyridinecarboxamide] has an IC50 ([1]; Homo sapiens, HEK293, 24 h) of 1.4 µM and an IC50 (BACE1) of 0.215 µM.

Work on `C=CC[C@H](NC(=O)c1cnccn1)[C@H](O)CN[C@H]1CC2(CCC2)Oc2ncc(CC(C)(C)C)cc21` [Example 98, N-((1S)-1-((1R)-2-(((4′S)-6′-(2,2-dimethylpropyl)-3′,4′-dihydrospiro[cyclobutane-1,2′-pyrano[2,3-b]pyridin]-4′-yl)amino)-1-hydroxyethyl)-3-buten-1-yl)-2-pyrazinecarboxamide] yielded an IC50 ([1]; Homo sapiens, HEK293, 24 h) of 1.69 µM and an IC50 (BACE1) of 0.741 µM.

`C=CCC(NC(=O)C1CN(C(=O)C(C)C)CCO1)C(O)CNC1CC2(CCC2)Oc2ncc(CC(C)(C)C)cc21` (stereo not drawn) [Example 156] was tested, and the IC50 ([1]; Homo sapiens, HEK293, 24 h) was 0.033 µM and the IC50 (BACE1) was 0.028 µM.

`C=CC[C@H](NC(=O)c1nccs1)[C@H](O)CN[C@H]1CC2(CCC2)Oc2ncc(CC(C)(C)C)cc21` [Example 133, N-((1S)-1-((1R)-2-(((4′S)-6′-(2,2-dimethylpropyl)-3′,4′-dihydrospiro[cyclobutane-1,2′-pyrano[2,3-b]pyridin]-4′-yl)amino)-1-hydroxyethyl)-3-buten-1-yl)-1,3-thiazole-2-carboxamide] was tested, and the IC50 ([1]; Homo sapiens, HEK293, 24 h) was 0.167 µM and the IC50 (BACE1) was 0.106 µM.

In the case of `C=CC[C@H](NC(=O)c1cccnc1F)[C@H](O)CN[C@H]1CC2(CCC2)Oc2ncc(CC(C)(C)C)cc21` [Example 67, N-((1S)-1-((1R)-2-(((4′S)-6′-(2,2-dimethylpropyl)-3′,4′-dihydrospiro[cyclobutane-1,2′-pyrano[2,3-b]pyridin]-4′-yl)amino)-1-hydroxyethyl)-3-buten-1-yl)-2-fluoro-3-pyridinecarboxamide], the IC50 ([1]; Homo sapiens, HEK293, 24 h) is reported as 0.517 µM and the IC50 (BACE1) is reported as 0.199 µM.

`C=CCC(NC(=O)C1CC1OCC)C(O)CNC1CC2(CCC2)Oc2ncc(CC(C)(C)C)cc21` [Example 154, (1R,2S)-N-((1S)-1-((1R)-2-(((4′S)-6′-(2,2-dimethylpropyl)-3′,4′-dihydrospiro[cyclobutane-1,2′-pyrano[2,3-b]pyridin]-4′-yl)amino)-1-hydroxyethyl)-3-buten-1-yl)-2-(ethyloxy)cyclopropanecarboxamide; (1S,2R)-N-((1S)-1-((1R)-2-(((4′S)-6′-(2,2-dimethylpropyl)-3′,4′-dihydrospiro[cyclobutane-1,2′-pyrano[2,3-b]pyridin]-4′-yl)amino)-1-hydroxyethyl)-3-buten-1-yl)-2-(ethyloxy)cyclopropanecarboxamide] was tested, and the IC50 [1] was 0.242 µM and the IC50 (BACE1) was 0.137 µM.

`C=CC[C@H](NC(C)=O)[C@H](O)CN[C@H]1CC2(CCC2)Oc2ncc(C[C@@H](C)C(F)(F)F)cc21` [Example 125, N-((1S)-1-((1R)-1-hydroxy-2-(((4′S)-6′-((2R)-3,3,3-trifluoro-2-methylpropyl)-3′,4′-dihydrospiro[cyclobutane-1,2′-pyrano[2,3-b]pyridin]-4′-yl)amino)ethyl)-3-buten-1-yl)acetamide] gave an IC50 ([1]; Homo sapiens, HEK293, 24 h) of 0.122 µM and an IC50 (BACE1) of 0.199 µM.
